Data from paper PMC8722130 (Progress in biophysics and molecular biology, 2021).

Assays:
[1] = target: uracil DNA-glycosylase (UDG) (Homo sapiens, UniProt P13051); assay: co-crystal structure; format: binding
[2] = target: human UDG (mitochondrial, 6xHis; XTAL Biostructures) (Homo sapiens, UniProt P13051-2 82-304); assay: thermal shift
Sequence of human UDG (mitochondrial, 6xHis; XTAL Biostructures) (P13051 91-313): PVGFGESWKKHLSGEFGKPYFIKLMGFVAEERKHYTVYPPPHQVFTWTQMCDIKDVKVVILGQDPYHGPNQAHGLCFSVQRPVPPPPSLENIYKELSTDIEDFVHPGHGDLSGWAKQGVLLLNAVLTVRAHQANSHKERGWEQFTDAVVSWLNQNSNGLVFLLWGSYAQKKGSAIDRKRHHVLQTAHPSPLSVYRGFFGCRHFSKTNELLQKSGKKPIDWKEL

Sequence of uracil DNA-glycosylase (UDG) (P13051 whole entry): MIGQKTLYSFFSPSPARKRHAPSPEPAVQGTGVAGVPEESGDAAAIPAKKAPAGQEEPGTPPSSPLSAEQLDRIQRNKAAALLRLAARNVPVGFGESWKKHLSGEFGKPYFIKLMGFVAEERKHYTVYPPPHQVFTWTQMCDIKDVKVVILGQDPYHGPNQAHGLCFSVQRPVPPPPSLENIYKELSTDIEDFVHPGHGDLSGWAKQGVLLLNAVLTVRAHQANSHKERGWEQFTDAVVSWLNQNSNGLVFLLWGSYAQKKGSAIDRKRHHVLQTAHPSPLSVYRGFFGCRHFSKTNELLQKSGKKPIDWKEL

O=C(O)C1=CC(=C(c2ccc(O)c(C(=O)O)c2)c2ccc(O)c(C(=O)O)c2)C=CC1=O [aurintricarboxylic acid]
Kd [1]: < 700 nM

GCACUUAAGAAUUGCAAUUCUUAAGUGC (structured_DNA, U in place of T (deoxyuridine, nine U:A pairs stated)) [uracil DNA hairpin]
binding result [2]: binds
